Results published in PMC10572855, “Phenotypic Test of Benzo[4,5]imidazo[1,2-c]pyrimidinone-Based Nucleoside and Non-Nucleoside Derivatives against DNA and RNA Viruses, Including Coronaviruses” (International Journal of Molecular Sciences, 2023).
Where two headings read alike, the source gives them in different places.

How the values were obtained:
HCoV OC43 = assay: Cytopathic effect reduction, HCoV OC43; type: cell-based, Human coronavirus OC43; settings: reduction of virus-induced cytopathic effect by 50%, virus input 100 TCID50, read-out: Antiviral Activity (EC50) HCoV OC43
[1] = Cytotoxicity in Huh7 cells, MTS assay; type: cell-based, Human; settings: human, Huh7 cells, cell growth reduced by 50%
Protocol: (§1) Cells were seeded at a rate of 5 × 10^3 cells/well into 96-well plates and allowed to proliferate for 24 h. Then, a medium containing different concentrations of the test compounds, starting at 100 mM, was added. After 3 days of incubation at 37 °C, the cell count was determined with a Beckman Coulter counter or, alternatively, cell viability was determined with the colorimetric formazan-based MTS assay. […] The cytotoxic effects of the compounds were also assessed by evaluating the MCC (minimum cytotoxic concentration that causes a microscopically detectable alteration of cell morphology).

[2] = Cytotoxicity in HEL299 cells, MTS assay; type: cell-based, Human; settings: human, HEL299 cells, cell growth reduced by 50%
Protocol: as §1

HCoV 229E = assay: Cytopathic effect reduction, HCoV 229E; type: cell-based, Human coronavirus 229E; settings: reduction of virus-induced cytopathic effect by 50%, virus input 100 TCID50, read-out: Antiviral Activity (EC50) HCoV 229E
RSV (Long) = assay: Cytopathic effect reduction, RSV (Long); type: cell-based, Respiratory syncytial virus; settings: reduction of virus-induced cytopathic effect by 50%, virus input 100 TCID50, read-out: Antiviral Activity (EC50) RSV Long
HCoV NL63 = assay: Cytopathic effect reduction, HCoV NL63; type: cell-based, Human coronavirus NL63; settings: reduction of virus-induced cytopathic effect by 50%, virus input 100 TCID50, read-out: Antiviral Activity (EC50) HCoV NL63
Huh7 cells = assay: Cytotoxicity in Huh7 cells, MTS assay; type: cell-based, Human; settings: cell growth reduced by 50%
Protocol: as §1

HEL299 cells = assay: Cytotoxicity in HEL299 cells, MTS assay; type: cell-based, Human; settings: cell growth reduced by 50%
Protocol: as §1

[3] = human respiratory syncytial virus

SMILES	EC50 (HCoV OC43; Betacoronavirus 1, OC43)	CC50 at 3 days [1]	CC50 at 3 days [2]	EC50 (HCoV 229E; Human coronavirus 229E)	EC50 (RSV (Long); [3])	EC50 (HCoV NL63; Human coronavirus NL63)	EC50 (HCoV OC43)	CC50 (Huh7 cells)	CC50 (HEL299 cells)	EC50 (HCoV 229E)	EC50 (RSV (Long))	EC50 (HCoV NL63)
O=c1n([C@@H]2O[C@H](CO)[C@@H](O)[C@H]2O)ccc2nc3cc(O)ccc3n12 [Compound 2b, 2-((2R,3R,4S,5R)-3,4-dihydroxy-5-(hydroxymethyl)tetrahydrofuran-2-yl)-7-hydroxybenzo[4,5]imidazo[1,2-c]pyrimidin-1(2H)-one]	> 100 µM	> 100 µM	> 100 µM	> 100 µM	> 100 µM	> 100 µM						
CCCCCCCCOc1ccc2c(c1)nc1cc[nH]c(=O)n12 [Compound 6c, 7-(octyloxy)benzo[4,5]imidazo[1,2-c]pyrimidin-1(2H)-one]	> 100 µM	> 100 µM	> 100 µM	> 100 µM	> 100 µM	> 100 µM						
CCCCCCCCCCOc1ccc2c(c1)nc1ccn([C@H]3C[C@H](O)[C@@H](COC(c4ccccc4)(c4ccc(OC)cc4)c4ccc(OC)cc4)O3)c(=O)n12 [Compound 4d, 2-((2R,4S,5R)-5-((bis(4-methoxyphenyl)(phenyl)methoxy)methyl)-4-hydroxytetrahydrofuran-2-yl)-7-(decyloxy)benzo[4,5]imidazo[1,2-c]pyrimidin-1(2H)-one]							> 100 µM	> 40 µM	> 40 µM	> 100 µM	> 100 µM	> 100 µM
O=c1n([C@H]2C[C@H](O)[C@@H](CO)O2)ccc2nc3cc(O)ccc3n12 [Compound 2a, 7-hydroxy-2-((2R,4S,5R)-4-hydroxy-5-(hydroxymethyl)tetrahydrofuran-2-yl)benzo[4,5]imidazo[1,2-c]pyrimidin-1(2H)-one]	> 100 µM	> 100 µM	> 100 µM	> 100 µM	> 100 µM	> 100 µM						
CCCCCCOc1ccc2c(c1)nc1ccn([C@H]3C[C@H](O)[C@@H](COC(c4ccccc4)(c4ccc(OC)cc4)c4ccc(OC)cc4)O3)c(=O)n12 [Compound 4b, 2-((2R,4S,5R)-5-((bis(4-methoxyphenyl)(phenyl)methoxy)methyl)-4-hydroxytetrahydrofuran-2-yl)-7-(hexyloxy)benzo[4,5]imidazo[1,2-c]pyrimidin-1(2H)-one]							> 100 µM	> 100 µM	> 100 µM	> 100 µM	> 100 µM	> 100 µM
CCCCCCCCOc1ccc2c(c1)nc1ccn([C@H]3C[C@H](O)[C@@H](COC(c4ccccc4)(c4ccc(OC)cc4)c4ccc(OC)cc4)O3)c(=O)n12 [Compound 4c, 2-((2R,4S,5R)-5-((bis(4-methoxyphenyl)(phenyl)methoxy)methyl)-4-hydroxytetrahydrofuran-2-yl)-7-(octyloxy)benzo[4,5]imidazo[1,2-c]pyrimidin-1(2H)-one]							> 100 µM	> 100 µM	> 40 µM	> 100 µM	> 100 µM	> 100 µM
CCCCCCCCCCOc1ccc2c(c1)nc1ccn([C@@H]3O[C@H](COC(c4ccccc4)(c4ccc(OC)cc4)c4ccc(OC)cc4)[C@@H](O)[C@H]3O)c(=O)n12 [Compound 5d, 2-((2R,3R,4S,5R)-5-((bis(4-methoxyphenyl)(phenyl)methoxy)methyl)-3,4-dihydroxytetrahydrofuran-2-yl)-7-(decyloxy)benzo[4,5]imidazo[1,2-c]pyrimidin-1(2H)-one]							> 100 µM	> 100 µM	> 100 µM	> 100 µM	> 100 µM	> 100 µM
CCCCCCCCCCCCOc1ccc2c(c1)nc1ccn([C@H]3C[C@H](O)[C@@H](COC(c4ccccc4)(c4ccc(OC)cc4)c4ccc(OC)cc4)O3)c(=O)n12 [Compound 4e, 2-((2R,4S,5R)-5-((bis(4-methoxyphenyl)(phenyl)methoxy)methyl)-4-hydroxytetrahydrofuran-2-yl)-7-(dodecyloxy)benzo[4,5]imidazo[1,2-c]pyrimidin-1(2H)-one]							> 100 µM	> 100 µM	> 100 µM	> 100 µM	> 100 µM	> 100 µM
CCCCCCCCCCOc1ccc2c(c1)nc1cc[nH]c(=O)n12 [Compound 6d, 7-(decyloxy)benzo[4,5]imidazo[1,2-c]pyrimidin-1(2H)-one]	> 100 µM	> 100 µM	> 100 µM	> 100 µM	> 100 µM	> 100 µM						
CCCCOc1ccc2c(c1)nc1cc[nH]c(=O)n12 [Compound 6a, 7-butoxybenzo[4,5]imidazo[1,2-c]pyrimidin-1(2H)-one]	> 100 µM	> 100 µM	> 100 µM	> 100 µM	> 100 µM	> 100 µM						
CCCCOc1ccc2c(c1)nc1ccn([C@H]3C[C@H](O)[C@@H](COC(c4ccccc4)(c4ccc(OC)cc4)c4ccc(OC)cc4)O3)c(=O)n12 [Compound 4a, 2-((2R,4S,5R)-5-((bis(4-methoxyphenyl)(phenyl)methoxy)methyl)-4-hydroxytetrahydrofuran-2-yl)-7-butoxybenzo[4,5]imidazo[1,2-c]pyrimidin-1(2H)-one]							> 100 µM	> 40 µM	> 40 µM	> 100 µM	> 100 µM	> 100 µM
CCCCCCOc1ccc2c(c1)nc1ccn([C@@H]3O[C@H](COC(c4ccccc4)(c4ccc(OC)cc4)c4ccc(OC)cc4)[C@@H](O)[C@H]3O)c(=O)n12 [Compound 5b, 2-((2R,3R,4S,5R)-5-((bis(4-methoxyphenyl)(phenyl)methoxy)methyl)-3,4-dihydroxytetrahydrofuran-2-yl)-7-(hexyloxy)benzo[4,5]imidazo[1,2-c]pyrimidin-1(2H)-one]							> 50 µM	> 10 µM	> 100 µM	> 100 µM	> 100 µM	> 100 µM
CCCCCCOc1ccc2c(c1)nc1cc[nH]c(=O)n12 [Compound 6b, 7-(hexyloxy)benzo[4,5]imidazo[1,2-c]pyrimidin-1(2H)-one]	> 100 µM	> 100 µM	> 100 µM	> 100 µM	> 100 µM	> 100 µM						
CCCCOc1ccc2c(c1)nc1ccn([C@@H]3O[C@H](COC(c4ccccc4)(c4ccc(OC)cc4)c4ccc(OC)cc4)[C@@H](O)[C@H]3O)c(=O)n12 [Compound 5a, 2-((2R,3R,4S,5R)-5-((bis(4-methoxyphenyl)(phenyl)methoxy)methyl)-3,4-dihydroxytetrahydrofuran-2-yl)-7-butoxybenzo[4,5]imidazo[1,2-c]pyrimidin-1(2H)-one]							> 100 µM	> 100 µM	> 100 µM	> 100 µM	> 100 µM	> 100 µM
CCCCCCCCCCCCOc1ccc2c(c1)nc1ccn([C@@H]3O[C@H](COC(c4ccccc4)(c4ccc(OC)cc4)c4ccc(OC)cc4)[C@@H](O)[C@H]3O)c(=O)n12 [Compound 5e, 2-((2R,3R,4S,5R)-5-((bis(4-methoxyphenyl)(phenyl)methoxy)methyl)-3,4-dihydroxytetrahydrofuran-2-yl)-7-(dodecyloxy)benzo[4,5]imidazo[1,2-c]pyrimidin-1(2H)-one]							> 100 µM	> 40 µM	> 100 µM	> 100 µM	> 100 µM	> 100 µM
CCCCCCCCCCCCOc1ccc2c(c1)nc1cc[nH]c(=O)n12 [Compound 6e, 7-(dodecyloxy)benzo[4,5]imidazo[1,2-c]pyrimidin-1(2H)-one]	> 100 µM	> 100 µM	> 100 µM	> 100 µM	> 100 µM	> 100 µM						
CCCCCCCCOc1ccc2c(c1)nc1ccn([C@@H]3O[C@H](COC(c4ccccc4)(c4ccc(OC)cc4)c4ccc(OC)cc4)[C@@H](O)[C@H]3O)c(=O)n12 [Compound 5c, 2-((2R,3R,4S,5R)-5-((bis(4-methoxyphenyl)(phenyl)methoxy)methyl)-3,4-dihydroxytetrahydrofuran-2-yl)-7-(octyloxy)benzo[4,5]imidazo[1,2-c]pyrimidin-1(2H)-one]							> 100 µM	> 10 µM	> 100 µM	> 100 µM	> 100 µM	> 100 µM
